pIC50: −log10 of the molar value. Where a name gives a salt, the structure may show the parent alone.
Tested on: Mnk2 (Mnk2a or Mnk2b) or Mnk1
Experiment: not given
Conditions: cells transfected with Mnk2 (Mnk2a or Mnk2b) or Mnk1; cited from earlier work

| Structure (SMILES) | reduction of phosphorylated eIF4E |
| --- | --- |
| Nc1ncnc2n[nH]c(Nc3ccc(F)cc3)c12 [CGP57380] | strong reduction of phosphorylated eIF4E |

Target: human Mnk2a (Homo sapiens (Human), UniProt Q9HBH9)
Experiment: Mnk2a in vitro kinase assay (indirect competitive fluorescence polarization)
Assay type: biochemical
Conditions: pre-activated GST-Mnk2a 2.5 nM, 20 μM ATP, 30 μM substrate peptide; read-out: MNK2 IC50
Summary of the method: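 GST-tagged human Mnk2a expressed in E. coli and glutathione-purified, then activated at 2.5 μM with 150 nM pre-activated NHis-ERK2 and 50 μM ATP in HEPES/KOH pH 7.4, MgCl2, DTT, Brij 78 for 45 min at 30 °C. Phospho-peptide product read by indirect competitive fluorescence polarization against fluorophore-labelled phospho-peptide bound to phospho-specific antibody.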

Sequence of human Mnk2a (Q9HBH9 whole entry): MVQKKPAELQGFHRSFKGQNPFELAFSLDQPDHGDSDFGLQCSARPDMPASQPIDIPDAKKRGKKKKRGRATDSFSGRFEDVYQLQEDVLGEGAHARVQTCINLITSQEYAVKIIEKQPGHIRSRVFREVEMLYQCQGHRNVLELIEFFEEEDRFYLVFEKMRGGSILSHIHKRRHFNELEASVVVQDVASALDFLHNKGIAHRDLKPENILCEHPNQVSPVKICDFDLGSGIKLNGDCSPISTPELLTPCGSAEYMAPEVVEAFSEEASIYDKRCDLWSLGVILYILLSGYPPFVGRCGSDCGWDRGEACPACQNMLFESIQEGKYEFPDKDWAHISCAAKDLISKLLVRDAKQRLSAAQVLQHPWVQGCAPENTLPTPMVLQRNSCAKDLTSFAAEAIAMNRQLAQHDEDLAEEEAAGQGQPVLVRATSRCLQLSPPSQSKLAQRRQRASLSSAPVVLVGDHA

| Structure (SMILES) | pIC50 |
| --- | --- |
| Cc1c(C(=O)NCCCN(C)C)sc2ncnc(Nc3cccnc3OCC3CC3(F)F)c12 (stereo not drawn) [Compound 34, 4-(2-((2,2-Difluorocyclopropyl)methoxy)pyridin-3-ylamino)-N-(3-(dimethylamino)propyl)-5-methylthieno[2,3-d]pyrimidine-6-carboxamide hydrochloride] | 7.27 |
| Cc1c(C(=O)NCCO)sc2ncnc(Nc3cccnc3OCC(C)F)c12 (stereo not drawn) [Compound 27-3, 4-(2-(2-Fluoropropoxy)pyridin-3-ylamino)-N-(2-hydroxyethyl)-5-methyl-thieno[2,3-d]pyrimidine-6-carboxamide] | 7.24 |
| CCC(CN)Oc1cc(F)ccc1Nc1ncnc2sc(C(=O)OC)c(C)c12 (stereo not drawn) [Compound 10-2, Methyl 4-(2-(1-aminobutan-2yloxy)-4-fluorophenylamino)-5-methyl-thieno[2,3-d]pyrimidine-6-carboxylate hydrochloride] | 6.64 |
| Cc1c(C(=O)O)sc2ncnc(Nc3ccc(F)cc3OC(CF)CF)c12 [Compound 23-2, 4-(2-(1,3-Difluoropropan-2-yloxy)-4-fluorophenylamino)-5-methyl-thieno[2,3-d]pyrimidine-6-carboxylic acid] | 8.22 |
| COC(=O)c1sc2ncnc(Nc3ccc(F)cc3OC(C)CNS(C)(=O)=O)c2c1C (stereo not drawn) [Compound 3-1, Methyl 4-(4-fluoro-(2-(1-methylsulfonamido)propan-2-yloxy)phenylamino)-5-methyl-thieno[2,3-d]pyrimidine-6-carboxylate] | 7.39 |

Results, then the compound that gave them:

| pIC50 | Structure (SMILES) |
| --- | --- |
| 7.20 | Cc1c(C(=O)NCCN2CCCCC2)sc2ncnc(Nc3cccnc3OC(C)C)c12 [Compound 36-9, 4-(2-Isopropoxypyridin-3ylamino)-5-methyl-N-(2-(piperidin-1-yl)ethyl)thieno[2,3-d]pyrimidine-6-carboxamide] |
| 7.38 | Cc1c(C(=O)NCCCCO)sc2ncnc(Nc3cccnc3OC(C)C)c12 [Compound 36-2, N-(4-Hydroxybutyl)-4-(2-isopropoxypyridin-3-ylamino)-5-methylthieno[2,3-d]pyrimidine-6-carboxamide] |
| 7.70 | Cc1c(C(N)=O)sc2ncnc(Nc3cccnc3OC(C)CCNS(C)(=O)=O)c12 (stereo not drawn) [Compound 45, 4-[2-(3-Methanesulfonylamino-1-methyl-propoxy)-pyridin-3-ylamino]-5-methyl-thieno[2,3-d]pyrimidine-6-carboxylic acid amide] |

Source: patent US8853193B2, “Thienopyrimidines containing a substituted alkyl group for pharmaceutical compositions” (Boehringer Ingelheim International GmbH, priority 2010, dated 2014)
